Assay results taken from patent publication US11203772B2, “Chemoenzymatic synthesis of structurally homogeneous ultra-low molecular weight heparins” (The University of North Carolina at Chapel Hill, priority 2010, dated 2021).

Legend:
[1] = test system: factor Xa; settings: rabbit, in vivo, sc, 120 ug/kg
[2] = test system: factor Xa; assay: Anticoagulant activity in vivo: anti-Xa activity of rabbit plasma samples; settings: rabbits, subcutaneous, 120 μg/kg; compared with one another
[3] = molecular target: T1, antithrombin (AT) (Homo sapiens, UniProt P01008); assay: Binding to antithrombin (AT) by affinity coelectrophoresis; settings: affinity co-electrophoresis, 35S-labeled compound
T1 construct: purchased Cutter Biological
T1 sequence (P01008 33-464): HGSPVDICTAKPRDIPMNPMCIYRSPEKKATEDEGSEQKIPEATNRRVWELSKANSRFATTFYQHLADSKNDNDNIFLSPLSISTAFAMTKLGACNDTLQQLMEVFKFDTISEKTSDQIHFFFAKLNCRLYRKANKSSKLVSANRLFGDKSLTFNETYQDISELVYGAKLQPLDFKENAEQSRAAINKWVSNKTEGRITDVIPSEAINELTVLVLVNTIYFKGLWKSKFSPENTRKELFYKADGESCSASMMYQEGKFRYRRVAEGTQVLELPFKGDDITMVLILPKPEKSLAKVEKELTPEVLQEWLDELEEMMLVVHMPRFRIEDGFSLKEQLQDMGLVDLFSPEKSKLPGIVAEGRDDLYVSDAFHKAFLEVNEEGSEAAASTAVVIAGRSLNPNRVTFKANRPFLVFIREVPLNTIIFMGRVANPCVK
Protocol: The dissociation constant (Kd) of each sample and AT was determined using affinity co-electrophoresis (Lee & Lander, 1991). Approximately 4000-5000 cpm of antithrombin-binding ^35S-labeled ULMW heparin construct 1 or 2 was loaded per lane with zones of AT at concentrations 0, 4, 8, 16, 32, 60, 120, 240 and 500 nM. The gel was performed at 400 mA for 2 hours, dried and analyzed on a Phospholmager Storm 860 (Amersham Biosciences, Uppsala, Sweden). The retardation coefficient was calculated at R=(M0-M)/M0, where M0 is the mobility of the polysaccharide through the zone without AT, and M is the mobility of the sample through each separation zone. The retardation coefficient was then plotted against the retardation coefficient divided by its respective concentration of AT. The slope of the line represents −1/Kd.

[4] = test system: bovine factor Xa; assay: Inhibition of factor Xa activity (anti-Xa, chromogenic substrate S-2765, with AT); format: biochemical; settings: with human AT, read-out: IC50 value, in vitro anti-Xa activity
Protocol: Inhibition effect of the ULMW heparin compounds on the activity of factor Xa. Assays were based on a previously published method (Zhang et al., 2001; Duncan et al., 2004). Briefly, bovine factor Xa (Sigma, St. Louis, Mo., United States of America) was diluted to 5 U/ml with PBS containing 1 mg/ml BSA. Human AT (Cutter Biological) was diluted with PBS containing 1 mg/ml BSA to give a stock solution at the concentration of 27 μM. The chromogenic substrates, S-2765 was from Diapharma and made up at 1 mM in water. The oligosaccharide (ARIXTRA® synthetic ULMW heparin pentasaccharide, ULMW heparin construct 1 and 2) was dissolved in PBS at various concentrations (0.5 to 50 nM). The reaction mixture, which included 25 μl of AT stock solution and 25 μl of the solution containing the sample, was incubated at 37° C. for 2 min. Factor Xa (25 μl) was added. After incubating 37° C. for 4 min, 25 μl of S-2765 was added. The absorbance of the reaction mixture was measured at 405 nm continuously for 10 min. The absorbance values were plotted against the reaction time. The initial reaction rates as a function of concentration were used to calculate the IC50 values.
The activity of Xa was determined by the rate of the increase of the absorbance at 405 nm. The activity without drugs was defined as 100%. […]

area under the curve (AUC), anti-Xa activity of plasma samples [1] | Kd [3] [nM] | IC50 [4] [nM] | SMILES | pharmacodynamic (PD) profiles [2]
802 | 9.1 ± 0.2 | 3.6 | O=C(O)C1OC(OC2C(COS(=O)(=O)O)OC(OC3C(C(=O)O)OC(OC4C(COS(=O)(=O)O)OC(OC5C(C(=O)O)OC(OC6C(CO)OC(CO)C6O)C(O)C5O)C(NS(=O)(=O)O)C4O)C(OS(=O)(=O)O)C3O)C(NS(=O)(=O)O)C2OS(=O)(=O)O)C(O)C(O)C1OC1OC(COS(=O)(=O)O)C(O)C(O)C1NS(=O)(=O)O (stereo not shown) [construct 2] | very similar
457 | – | 3 | CO[C@H]1O[C@H](COS(=O)(=O)O)[C@@H](O[C@@H]2O[C@@H](C(=O)O)[C@@H](O[C@H]3O[C@H](COS(=O)(=O)O)[C@@H](O[C@@H]4O[C@H](C(=O)O)[C@@H](O[C@H]5O[C@H](COS(=O)(=O)O)[C@@H](O)[C@H](O)[C@H]5NS(=O)(=O)O)[C@H](O)[C@H]4O)[C@H](OS(=O)(=O)O)[C@H]3NS(=O)(=O)O)[C@H](O)[C@H]2OS(=O)(=O)O)[C@H](O)[C@H]1NS(=O)(=O)O [ARIXTRA®, fondaparinux sodium, reference compound] | very similar
